Data from publication PMC11003488 (Journal of Enzyme Inhibition and Medicinal Chemistry, 2023).
Where two headings read alike, the source gives them in different places.

Tests used:
786-0 = assay: NCI-60 SRB growth inhibition, one-dose and five-dose; type: cell-based; conditions: Homo sapiens
NCI/ADR-RES = assay: as above; type: cell-based; conditions: Homo sapiens
HT29 = assay: as above; type: cell-based; conditions: Homo sapiens
SR = assay: as above; type: cell-based; conditions: Homo sapiens
HCT-15 = assay: as above; type: cell-based; conditions: Homo sapiens
NCI-H522 = assay: as above; type: cell-based; conditions: Homo sapiens
NCI-H23 = assay: as above; type: cell-based; conditions: Homo sapiens
A549/ATCC = assay: as above; type: cell-based; conditions: Homo sapiens
SW-620 = assay: as above; type: cell-based; conditions: Homo sapiens
T-47D = assay: as above; type: cell-based; conditions: Homo sapiens, T47D
CCRF-CEM = assay: as above; type: cell-based; conditions: Homo sapiens
BT-549 = assay: as above; type: cell-based; conditions: Homo sapiens
SNB-75 = assay: as above; type: cell-based; conditions: Homo sapiens
OVCAR-3 = assay: as above; type: cell-based; conditions: Homo sapiens
LOX IMVI = assay: as above; type: cell-based; conditions: Homo sapiens
SK-MEL-28 = assay: as above; type: cell-based; conditions: Homo sapiens
MALME-3M = assay: as above; type: cell-based; conditions: Homo sapiens
OVCAR-5 = assay: as above; type: cell-based; conditions: Homo sapiens
OVCAR-4 = assay: as above; type: cell-based; conditions: Homo sapiens
SF-295 = assay: as above; type: cell-based; conditions: Homo sapiens
COLO 205 = assay: as above; type: cell-based; conditions: Homo sapiens
SK-MEL-5 = assay: as above; type: cell-based; conditions: Homo sapiens
A498 = assay: as above; type: cell-based; conditions: Homo sapiens
RXF 393 = assay: as above; type: cell-based; conditions: Homo sapiens
NCI-H460 = assay: as above; type: cell-based; conditions: Homo sapiens
M14 = assay: as above; type: cell-based; conditions: Homo sapiens
DU-145 = assay: as above; type: cell-based; conditions: Homo sapiens
SK-MEL-2 = assay: as above; type: cell-based; conditions: Homo sapiens
MCF7 = assay: as above; type: cell-based; conditions: Homo sapiens
U251 = assay: as above; type: cell-based; conditions: Homo sapiens
NCI-H322M = assay: as above; type: cell-based; conditions: Homo sapiens
HOP-92 = assay: as above; type: cell-based; conditions: Homo sapiens
MOLT-4 = assay: as above; type: cell-based; conditions: Homo sapiens
[1] = tested on: NCI 60-cell line panel (full panel); assay: NCI-60 SRB growth inhibition, full panel mean / MG-MID; type: cell-based, human; conditions: for GI50: Homo sapiens, 60 cell
CAKI-1 = assay: NCI-60 SRB growth inhibition, one-dose and five-dose; type: cell-based; conditions: Homo sapiens
K-562 = assay: as above; type: cell-based; conditions: Homo sapiens
SK-OV-3 = assay: as above; type: cell-based; conditions: Homo sapiens
MDA-MB-468 = assay: as above; type: cell-based; conditions: Homo sapiens
EKVX = assay: as above; type: cell-based; conditions: Homo sapiens
SNB-19 = assay: as above; type: cell-based; conditions: Homo sapiens
SF-268 = assay: as above; type: cell-based; conditions: Homo sapiens
UACC-257 = assay: as above; type: cell-based; conditions: Homo sapiens
[2] = read-out: percent growth inhibition

## COc1ccc(CNc2cccc(C(=O)/C=C/c3ccc(NC(C)=O)cc3)c2)cc1OC [Compound 5h, (E)-N-(4–(3-(3-((3,4-dimethoxybenzyl)amino)phenyl)-3-oxoprop-1-en-1-yl)phenyl) acetamide]
786-0; 786-0
  GI50: 1.57 µM
786-0; 786-0, read-out: percent growth inhibition
  inhibition at 10 µM: 155%
NCI/ADR-RES
  GI50: 2.86 µM
HT29; HT-29
  GI50: 3.46 µM
HT29; HT-29, read-out: percent growth inhibition
  inhibition at 10 µM: 172%
SR
  GI50: 1.93 µM
SR; [2]
  inhibition at 10 µM: 98.3%
HCT-15; HCT-15
  GI50: 1.8 µM
HCT-15; HCT-15, read-out: percent growth inhibition
  inhibition at 10 µM: 125%
NCI-H522; NCI-H522
  GI50: 8.85 µM
NCI-H522; NCI-H522, read-out: percent growth inhibition
  inhibition at 10 µM: 150%
NCI-H23; NCI-H23
  GI50: 4.26 µM
NCI-H23; NCI-H23, read-out: percent growth inhibition
  inhibition at 10 µM: 105%
A549/ATCC; A549
  GI50: 23.6 µM
A549/ATCC; A549, read-out: percent growth inhibition
  inhibition at 10 µM: 77.3%
SW-620; SW-620
  GI50: 2 µM
SW-620; SW-620, read-out: percent growth inhibition
  inhibition at 10 µM: 157%
T-47D
  GI50: 5.04 µM
T-47D; [2]
  inhibition at 10 µM: 104%
CCRF-CEM
  GI50: 2.74 µM
CCRF-CEM; [2]
  inhibition at 10 µM: 84.5%
BT-549; BT-549
  GI50: 1.54 µM
BT-549; BT-549, read-out: percent growth inhibition
  inhibition at 10 µM: 126%
SNB-75; SNB-75
  GI50: 10.1 µM
SNB-75; SNB-75, read-out: percent growth inhibition
  inhibition at 10 µM: 62.8%
OVCAR-3; OVCAR-3
  GI50: 2.28 µM
OVCAR-3; OVCAR-3, read-out: percent growth inhibition
  inhibition at 10 µM: 114%
LOX IMVI
  GI50: 1.8 µM
LOX IMVI; [2]
  inhibition at 10 µM: 181%
SK-MEL-28; SK-MEL-28
  GI50: 2.82 µM
SK-MEL-28; SK-MEL-28, read-out: percent growth inhibition
  inhibition at 10 µM: 108%
MALME-3M
  GI50: 3.5 µM
MALME-3M; [2]
  inhibition at 10 µM: 151%
OVCAR-5; OVCAR-5
  GI50: 4.53 µM
OVCAR-5; OVCAR-5, read-out: percent growth inhibition
  inhibition at 10 µM: 84.1%
OVCAR-4; OVCAR-4
  GI50: 3.09 µM
OVCAR-4; OVCAR-4, read-out: percent growth inhibition
  inhibition at 10 µM: 89.4%
SF-295; SF-295
  GI50: 7.83 µM
SF-295; SF-295, read-out: percent growth inhibition
  inhibition at 10 µM: 84.1%
COLO 205; COLO 205
  GI50: 9.39 µM
COLO 205; COLO 205, read-out: percent growth inhibition
  inhibition at 10 µM: 145%
SK-MEL-5; SK-MEL-5
  GI50: 4.13 µM
SK-MEL-5; SK-MEL-5, read-out: percent growth inhibition
  inhibition at 10 µM: 126%
A498; A498
  GI50: 13.7 µM
A498; A498, read-out: percent growth inhibition
  inhibition at 10 µM: 11.5%
RXF 393; RXF 393
  GI50: 1.87 µM
RXF 393; RXF 393, read-out: percent growth inhibition
  inhibition at 10 µM: 132%
NCI-H460; NCI-H460
  GI50: 2.1 µM
NCI-H460; NCI-H460, read-out: percent growth inhibition
  inhibition at 10 µM: 143%
M14; M14
  GI50: 1.72 µM
M14; M14, read-out: percent growth inhibition
  inhibition at 10 µM: 142%
DU-145; DU-145
  GI50: 4.25 µM
DU-145; DU-145, read-out: percent growth inhibition
  inhibition at 10 µM: 75.4%
SK-MEL-2; SK-MEL-2
  GI50: 10.6 µM
SK-MEL-2; SK-MEL-2, read-out: percent growth inhibition
  inhibition at 10 µM: 53.7%
MCF7; MCF7
  GI50: 2.54 µM
MCF7; MCF7, read-out: percent growth inhibition
  inhibition at 10 µM: 119%
U251; U-251
  GI50: 2.88 µM
U251; U-251, read-out: percent growth inhibition
  inhibition at 10 µM: 150%
NCI-H322M
  GI50: 13.6 µM
NCI-H322M; [2]
  inhibition at 10 µM: 32%
HOP-92; HOP-92
  GI50: 4.02 µM
HOP-92; HOP-92, read-out: percent growth inhibition
  inhibition at 10 µM: 65.8%
MOLT-4; MOLT-4
  GI50: 2.68 µM
MOLT-4; MOLT-4, read-out: percent growth inhibition
  inhibition at 10 µM: 78.3%
[1]; read-out: Full panel GI50 mean
  GI50: 4.48 µM
[1]; read-out: Full panel MG-MID GI50
  GI50: 4.48 µM
[1]; mean over NCI-60 panel, single dose 10 µM
  Full panel Mean GI %: 108.5%
CAKI-1; CAKI-1
  GI50: 3.15 µM
CAKI-1; CAKI-1, read-out: percent growth inhibition
  inhibition at 10 µM: 56.4%
K-562; K562
  GI50: 2.5 µM
K-562; K562, read-out: percent growth inhibition
  inhibition at 10 µM: 92.2%
SK-OV-3; SK-OV-3
  GI50: 20 µM
SK-OV-3; SK-OV-3, read-out: percent growth inhibition
  inhibition at 10 µM: 75.5%
MDA-MB-468; MDA-MB-468
  GI50: 2.44 µM
MDA-MB-468; MDA-MB-468, read-out: percent growth inhibition
  inhibition at 10 µM: 166%
EKVX
  GI50: 4.09 µM
EKVX; [2]
  inhibition at 10 µM: 94.9%
SNB-19; SNB-19
  GI50: 5.19 µM
SNB-19; SNB-19, read-out: percent growth inhibition
  inhibition at 10 µM: 56.9%
SF-268; SF-268
  GI50: 3.01 µM
SF-268; SF-268, read-out: percent growth inhibition
  inhibition at 10 µM: 64%
UACC-257; UACC-257
  GI50: 9.28 µM
UACC-257; UACC-257, read-out: percent growth inhibition
  inhibition at 10 µM: 61.5%
